Source: paper PMC11594329, “Development of LAT1-Selective Nuclear Medicine Therapeutics Using Astatine-211” (International Journal of Molecular Sciences, 2024)

How the values were obtained:
[1] = Stability of labeled compound by TLC after labeling; assay type: physicochemical; conditions: after 24 h and 48 h
Description: All precursors were labeled by “Shirakami Reaction” and purified using an HLB column (Waters Corp, Waltham, MA, USA). All structures are shown in Supplementary Figure S1. After purification, the solution was supplemented with 1% (v/w) of ascorbic acid. The retention time of (S)-2-amino-3-(3-(astato-^211At)-4-methoxyphenyl)-2-methylpropanic acid (^211At-AAMT-OMe-L) determined using High Performance Liquid Chromatography (HPLC) (concentration: 1 MBq/mL, Flow: 1 mL/min; absorbance = 226 nm) was 12.91 min. A COSMOSIL Packed 5C18-MS-II (4.6 mm × 150 mm) Column was used at 40 °C. Mobile phase A was 0.1% formic acid and B was acetonitrile (10–60%, 20 min). […] The stability of ^211At-AAMT-OMe-L in its unpurified state was analyzed by thin layer chromatography (TLC). BAS IP MS 2025E (GE Healthcare Technologies Inc., Chicago, IL, USA) was used for imaging. […] Because optical isomers were only examined for ^211At-AAMT-OMe-L and the remaining labeled products were all L-isomers, the DL notation was omitted when optical isomers were not compared. ^211At-AAMT-O-Me-L in the crude product solution was detected at Rf = 0.80, yielding a radiochemical yield (RCY) of 81.3%. The radiochemical yield and purity of the purified product were 81% and 98%, respectively. ^211At-AAMT-O-Me-D in the crude product solution was detected at Rf = 0.80, yielding a radiochemical yield (RCY) of 79.6%. […]

[2] = Single dose intravenous toxicity study (hematology, pathology) in ICR mice; assay type: in vivo; conditions: ICR mice male and female, 1 MBq/mouse
Description: Toxicity studies were performed using ^211At-AAMT-O-Me-L, which appeared to have the highest safety profile based on pharmacokinetic results. Labeled material was administered to ICR mice (male and female) at a dose of 1 MBq/mouse with a clear therapeutic effect, and samples were collected the day after administration and 5, 14, and 28 days later for blood and pathological examination.
Development of LAT1-selective nuclear medicine therapeutics
Kazuko Kaneda-Nakashima 1, 2*, Yoshifumi Shirakami 2, Kentaro Hisada 1, Sifan Feng 1, Yuichiro Kadonaga 2, Kazuhiro Ooe 2, Tadashi Watabe 3, Yoshiyuki Manabe 2, 4, Atsushi Shimoyama 2, 4, Masashi Murakami 2, Atsushi Toyoshima 2, Hiromitsu Haba 5, Yoshikatsu Kanai 6, Koichi Fukase 2, 4 […]
S1. Hematological analysis
S1.1. Animal preparation and administration of 211At-AAMT-O-Me-L
This study was conducted in compliance with the Animal Experiment […]
(Hamamatsu, Japan), respectively. […] General condition and body weight were monitored. […]
After the prescribed observation time, blood was collected under anesthesia and the animals were euthanized. […] Red blood cell count (RBC), hemoglobin concentration (Hb), hematocrit (Ht), white blood cell count (WBC), platelet count (platelet), lymphocytes (%Lymph), monocytes (%Mon), and granulocytes (%Gra) were calculated (Supplementary Table S2). […]

COc1ccc(C[C@](C)(N)C(=O)O)cc1[211At] [^211At-AAMT-O-Me-L, (S)-2-amino-3-(3-(astato-^211At)-4-methoxyphenyl)-2-methylpropanic acid]
Stability in unpurified state by TLC [1]: almost no degradation | Toxicity findings (blood and pathological examination) ([2]; day after administration): no effects were observed | Toxicity findings (blood and pathological examination) ([2]; five days after administration, subsequently cured): hematopoietic disorders originating from radiation exposure were observed
